Consider 4 molecules from publication PMC4401096 (Scientific Reports, 2015).

The conditions of series [1]: RLMs.
Experimental: (§1) The standard incubation system for the UGT reaction included HLMs (5 mg of protein/mL), UDPGA (40 mM), Tris-HCl buffer (pH 7.4), MgCl2 (50 mM), 25 μg/mL alamethicin, and substrates in a final volume of 200 μL. The volume of organic solvent was less than 1%. After 60 min of incubation at 37°C, the reaction was terminated by adding 0.1 mL of methanol. The sample was then centrifuged at 20,000 g for 20 minutes to obtain the supernatant for LC-UV-ESI analysis.
(§2) To ensure that less than 10% of the substrate was metabolized in all incubations, different incubation times and protein concentration conditions were selected with 60 min of incubation and 0.15 to 0.75 mg of protein, to confirm the linear interval of metabolite turnover rates. The kinetic models used for analysis were Michaelis–Menten kinetics (eq. 1), biphasic kinetics (eq. 2) and inhibition kinetics (eq. 3)[32]. [drawing 1] [drawing 2] […] Ksi is the constant describing the substrate inhibition interaction. All of the incubations were performed in three independent experiments in duplicate. Kinetic constants were obtained using Origin 7.5 (OriginLab Corp., Northampton, MA) and were reported as the mean ± standard error (S.E.) of the parameter estimate.
The conditions of series [2]: DLMs.
Experimental: as §1, §2
For series [3] the following is noted: MLMs.
Experimental: as §1, §2
For series [4] the following is noted: 3-O-Glucuronide (M-1), TLMs.
Experimental: as §1, §2
For series [5] the following is noted: HLMs.
Experimental: as §1, §2
Series [6] in a line: Species comparison of DACB glucuronidation in animal liver microsomes. Type of series: in vitro ADME. A general note: Liver microsomes are a subcellular fraction often used to study metabolism.
For series [7] the following is noted: 16-O-Glucuronide (M-2), PLMs.
The conditions of series [8]: M-2 (16-O-glucuronidation), HIMs.
Experimental: as §1, §2
In the next series the target is T1, UGT1A4 (Homo sapiens, UniProt P22310).
T1 sequence (P22310 29-534): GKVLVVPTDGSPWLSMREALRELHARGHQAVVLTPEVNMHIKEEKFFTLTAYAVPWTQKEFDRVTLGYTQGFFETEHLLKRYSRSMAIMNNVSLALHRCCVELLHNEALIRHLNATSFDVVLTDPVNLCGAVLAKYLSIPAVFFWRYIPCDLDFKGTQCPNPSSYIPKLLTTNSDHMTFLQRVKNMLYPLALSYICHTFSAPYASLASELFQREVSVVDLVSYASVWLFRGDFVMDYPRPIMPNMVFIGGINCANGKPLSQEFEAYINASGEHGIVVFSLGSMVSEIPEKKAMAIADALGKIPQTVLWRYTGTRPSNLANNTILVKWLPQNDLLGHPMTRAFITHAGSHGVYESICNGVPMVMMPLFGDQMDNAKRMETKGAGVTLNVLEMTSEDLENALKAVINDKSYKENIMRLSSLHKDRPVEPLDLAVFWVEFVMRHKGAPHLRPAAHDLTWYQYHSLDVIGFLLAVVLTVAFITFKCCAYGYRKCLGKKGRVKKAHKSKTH

A further series deals with T2, UGT1A3 (Homo sapiens, UniProt P35503).
T2 sequence (P35503 29-534): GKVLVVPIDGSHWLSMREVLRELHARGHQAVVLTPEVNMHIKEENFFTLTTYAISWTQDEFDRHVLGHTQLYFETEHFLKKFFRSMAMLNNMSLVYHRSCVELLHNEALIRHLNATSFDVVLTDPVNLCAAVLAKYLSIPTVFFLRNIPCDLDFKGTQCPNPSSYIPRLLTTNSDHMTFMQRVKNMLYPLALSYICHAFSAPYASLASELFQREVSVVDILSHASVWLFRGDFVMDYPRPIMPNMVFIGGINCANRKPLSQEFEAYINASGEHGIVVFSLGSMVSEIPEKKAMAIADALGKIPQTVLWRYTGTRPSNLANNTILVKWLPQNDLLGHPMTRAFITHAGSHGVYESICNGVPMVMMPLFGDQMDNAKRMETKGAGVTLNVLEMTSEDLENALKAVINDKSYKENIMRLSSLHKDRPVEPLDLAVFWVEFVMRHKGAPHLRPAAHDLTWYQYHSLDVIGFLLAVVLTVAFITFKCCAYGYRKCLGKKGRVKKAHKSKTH

Setting [9] is: animal species liver microsomes.
Setting [10] is: liver microsomes of various species.

Read-outs that look alike come from different tables or passages of the source.

Experimental for UGT1A3: (§3) All of the incubations were performed for 60 min using HLMs with a concentration of 0.3 mg of protein/mL, 0.05 mg of protein/mL for UGT1A3 and 0.25 mg of protein/mL for UGT1A4. Similarly, for the UGT1A4 isoform, hecogenin (1–80 μM) was used as a specific inhibitor to determine the differences of inhibition effects between HLMs and UGT1A4.
Experimental for UGT1A4: as §3

Regarding `C[C@]12CC[C@H](O)C[C@H]1CC[C@@H]1[C@@H]2CC[C@]2(C)[C@@H](c3ccc(=O)oc3)[C@@H](O)[C@H]3O[C@]132` [DACB, desacetylcinobufagin], the Vmax in series [1] (3-O-Glucuronide (M-1)) amounted to 0.107 ± 0.002 nmol/min/mg; in series [1] (16-O-Glucuronide (M-2)), 0.018 ± 0.001 nmol/min/mg; in series [2] (3-O-Glucuronide (M-1), biphasic kinetics, first line) it was 0.005 ± 0.001 nmol/min/mg; in [2] (3-O-Glucuronide (M-1), biphasic kinetics, second line), 0.009 ± 0.001 nmol/min/mg; in series [2] (16-O-Glucuronide (M-2)), 0.111 ± 0.010 nmol/min/mg; in series [3] (3-O-Glucuronide (M-1)), 0.174 ± 0.008 nmol/min/mg. Besides, the maximum rate (Vmax) amounted to 0.288 ± 0.002 nmol/min/mg in [3] (16-O-Glucuronide (M-2)); 0.106 ± 0.002 nmol/min/mg in [4]; 0.061 ± 0.002 nmol/min/mg in series [5] (M-1 (3-O-glucuronidation)); 0.074 ± 0.004 nmol/min/mg in series [5] (M-2 (16-O-glucuronidation)); 0.032 ± 0.001 nmol/min/mg in [7]; 0.007 ± 0.002 nmol/min/mg in series [8]. In series [4], the Michaelis constant (Km) came to 63.6 ± 5.33 µM. Also, in series [6] (setting [9]), the “order of CLint activities of UGT1A3, M-2 formation” value is on record as “MLM > RLM > PLM > DLM”. Besides, in [6] (setting [9]), the “order of UGT1A4 activities by CLint values, M-1 formation” value is recorded as “Rabbit > Monkey > Mouse > Dog > Pig”. Further, the “occurrence of 3-O-glucuronidation in species” value in series [6] (setting [10]) was “occurs in DLMs, MLMs, MsLMs, RLMs and TLMs”. Moreover, the “occurrence of 16-O-glucuronidation in species” value in series [6] (setting [10]) was “can occur in all species except RtLMs”.

For the molecule `CN1CCN(CCCN2c3ccccc3Sc3ccc(C(F)(F)F)cc32)CC1` [TFP, trifluoperazine], at UGT1A4, the “inhibition of the 3-O-glucuronidation of DACB” value was “significantly inhibit”.

For `CC1(C)[C@@H](O)CC[C@]2(C)[C@H]3C(=O)C=C4[C@@H]5C[C@@](C)(C(=O)O)CC[C@]5(C)CC[C@@]4(C)[C@]3(C)CC[C@@H]12` [glycyrrhetinic acid], the “inhibition of the formation of M-2 (16-O-glucuronate)” value against UGT1A3 is listed as “significantly inhibited”. At UGT1A3 (glycyrrhetinic acid 0–60 μM, UGT1A3 and HLMs), the “IC50 values for M-2 formation, UGT1A3 compared with HLMs” value was “equal”.

Consider hecogenin, for which the “inhibition of the 3-O-glucuronidation of DACB” value on UGT1A4 is recorded as “significantly inhibit”. Also, the “IC50 values for M-1 formation, UGT1A4 compared with HLMs” value against UGT1A4 (hecogenin 1–80 μM, UGT1A4 and HLMs) is reported as “similar”.

What is called Vmax is the top rate of the reaction or transport when substrate is in excess. One may read the Km as the substrate concentration at which the rate is half of its maximum.
